Laboratory results taken from patent US11926626B2, “Heterocyclic GLP-1 agonists” (Gasherbrum Bio, Inc., priority 2020, dated 2024).
Read-outs that look alike come from different tables or passages of the source.

Biological target: GLP-1 Receptor (Homo sapiens, UniProt P43220)
Assay: GLP-1R agonist cAMP stimulation assay (HEK293/GLP1R/CRE-Luc cells, HTRF cAMP)
Assay type: cell-based
Conditions: 30 min, 37° C.; for EC50: read-out: GLP1R cAMP Stimulation DR: EC50
Procedure: Activation of GLP-1 receptor is known to stimulate cyclic AMP (cAMP) production in cells which indicates primary coupling to the Gαs subunit of the G protein heterotrimeric complex.
To optimize functional activity directed toward Gαs coupling, a HEK293/CRE-Luc cell line developed by HDB stably expressing the GLP-1 Receptor was used. […] 1×10^5 cells/mL HEK293/GLP1R/CRE-LUC(HD Biosciences) cell suspensions prepared with assay buffer[DPBS containing 0.5 mM IBMX (Sigma, Cat #I5879) and 0.1% BSA (GENVIEW, Cat #FA016-100g)], 10 uL cell suspensions were added to each well of previous generated assay plate which already contains 50 nl compound at 200×concentration using ThermoFisher Multidrop Combi (1000 cells/well). Seal the plate and incubate at 37° C. with 5% CO2 for 30 min.
After incubation the cAMP assay signal was generated using cAMP dynamic 2 Kit (Cisbio). 5 μL cAMP-d2 working solution was added to each well, followed with 5 μL Anti-cAMP antibody-cryptate working solution added to each well using ThermoFisher Multidrop Combi. Incubate at room temperature for 1 hour protected from light.

[1] = HEK293/CRE-Luc cells stably expressing GLP-1 Receptor

Chain of GLP-1 Receptor (P43220 24-463): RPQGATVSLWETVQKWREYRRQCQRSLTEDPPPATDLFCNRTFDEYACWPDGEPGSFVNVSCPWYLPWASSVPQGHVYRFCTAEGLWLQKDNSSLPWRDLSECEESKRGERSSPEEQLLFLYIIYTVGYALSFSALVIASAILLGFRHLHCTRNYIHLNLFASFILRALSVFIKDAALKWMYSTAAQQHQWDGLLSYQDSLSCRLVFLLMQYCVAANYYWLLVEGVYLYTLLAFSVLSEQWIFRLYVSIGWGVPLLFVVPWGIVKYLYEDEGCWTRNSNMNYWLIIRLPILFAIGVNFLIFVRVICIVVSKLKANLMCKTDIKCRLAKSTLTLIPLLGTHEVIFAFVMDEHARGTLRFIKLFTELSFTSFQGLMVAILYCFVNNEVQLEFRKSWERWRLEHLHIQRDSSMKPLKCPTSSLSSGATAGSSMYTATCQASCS

SMILES	GLP1R cAMP Stimulation DR: pEC50 [1]	further results
O=C(O)c1ccc2nc(CN3CCC(Oc4cccc(Cc5ccc(Cl)s5)n4)CC3)n(C[C@@H]3CCO3)c2n1 [Compound 147a, 2-{[4-({6-[(5-chlorothiophen-2-yl)methyl]pyridin-2-yl}oxy)piperidin-1-yl]methyl}-3-{[(2S)-oxetan-2-yl]methyl}-3H-imidazo[4,5-b]pyridine-5-carboxylic acid]		GLP1R cAMP Stimulation DR: pEC50: 9.7; EC50: 200 pM
O=C(O)c1ccc2nc(CN3CCC(Oc4cccc(CN5Cc6ccccc6C5=O)n4)CC3)n(C[C@@H]3CCO3)c2n1 [Compound 148a, 3-{[(2S)-oxetan-2-yl]methyl}-2-{[4-({6-[(1-oxo-2,3-dihydro-1H-isoindol-2-yl)methyl]pyridin-2-yl}oxy)piperidin-1-yl]methyl}-3H-imidazo[4,5-b]pyridine-5-carboxylic acid]	8.4	
O=C(O)c1ccc2nc(CN3CCC(Oc4ccc(F)c(Cc5ccc(Cl)cc5F)n4)CC3)n(C[C@@H]3CCO3)c2n1 [Compound 150a, (S)-2-((4-((6-(4-chloro-2-fluorobenzyl)-5-fluoropyridin-2-yl)oxy)piperidin-1-yl)methyl)-3-(oxetan-2-ylmethyl)-3H-imidazo[4,5-b]pyridine-5-carboxylic acid]	7.2	
O=C(O)c1ccc2nc(CN3CCC(Oc4ccnc(Cc5ccc(Cl)cc5)n4)CC3)n(C[C@@H]3CCO3)c2n1 [Compound 152a, 2-{[4-({2-[(4-chlorophenyl)methyl]pyrimidin-4-yl}oxy)piperidin-1-yl]methyl}-3-{[(2S)-oxetan-2-yl]methyl}-3H-imidazo[4,5-b]pyridine-5-carboxylic acid]	10.4	
O=C(O)c1ccc2nc(CN3CCC(Oc4cc(Cl)cc(Cc5ccc(Cl)cc5)n4)CC3)n(C[C@@H]3CCO3)c2n1 [Compound 155a, 2-{[4-({4-chloro-6-[(4-chlorophenyl)methyl]pyridin-2-yl}oxy)piperidin-1-yl]methyl}-3-{[(2S)-oxetan-2-yl]methyl}-3H-imidazo[4,5-b]pyridine-5-carboxylic acid]	8.4	
O=C(O)c1ccc2nc(CN3CCC(Oc4ccnc(Cc5ccc(Cl)cc5F)n4)CC3)n(C[C@@H]3CCO3)c2c1 [Compound 160a, 2-{[4-({2-[(4-chloro-2-fluorophenyl)methyl]pyrimidin-4-yl}oxy)piperidin-1-yl]methyl}-1-{[(2S)-oxetan-2-yl]methyl}-1H-1,3-benzodiazole-6-carboxylic acid]	9.9	
O=C(O)c1cnc2nc(CN3CCC(Oc4ccnc(Cc5ccc(Cl)cc5F)n4)CC3)n(C[C@@H]3CCO3)c2c1 [Compound 161a, 2-{[4-({2-[(4-chloro-2-fluorophenyl)methyl]pyrimidin-4-yl}oxy)piperidin-1-yl]methyl}-1-{[(2S)-oxetan-2-yl]methyl}-1H-imidazo[4,5-b]pyridine-6-carboxylic acid]	9.7	
O=C(O)c1ccc2nc(CN3CCC(Oc4ccnc(Cc5ccc(Cl)c(Cl)c5)n4)CC3)n(C[C@@H]3CCO3)c2n1 [Compound 167a, 2-{[4-({2-[(3,4-dichlorophenyl)methyl]pyrimidin-4-yl}oxy)piperidin-1-yl]methyl}-3-{[(2S)-oxetan-2-yl]methyl}-3H-imidazo[4,5-b]pyridine-5-carboxylic acid]	9.9	

More lines, main results first:

GLP1R cAMP Stimulation DR: pEC50 [1]	SMILES	further results
8.3	O=C(O)c1ccc2nc(CN3CCC(Oc4cccc(Cn5ccc(Cl)cc5=O)n4)CC3)n(C[C@@H]3CCO3)c2n1 [Compound 149a, 2-{[4-({6-[(4-chloro-2-oxo-1,2-dihydropyridin-1-yl)methyl]pyridin-2-yl}oxy)piperidin-1-yl]methyl}-3-{[(2S)-oxetan-2-yl]methyl}-3H-imidazo[4,5-b]pyridine-5-carboxylic acid]	
10.1	O=C(O)c1ccc2nc(CN3CCC(Oc4nc(Cc5ccc(Cl)cc5F)ncc4F)CC3)n(C[C@@H]3CCO3)c2n1 [Compound 151a, (S)-2-((4-((2-(4-chloro-2-fluorobenzyl)-5-fluoropyrimidin-4-yl)oxy)piperidin-1-yl)methyl)-3-(oxetan-2-ylmethyl)-3H-imidazo[4,5-b]pyridine-5-carboxylic acid]	
7.6	Cc1cc(Cc2ccc(Cl)cc2)nc(OC2CCN(Cc3nc4ccc(C(=O)O)nc4n3C[C@@H]3CCO3)CC2)c1 [Compound 154a, 2-{[4-({6-[(4-chlorophenyl)methyl]-4-methylpyridin-2-yl}oxy)piperidin-1-yl]methyl}-3-{[(2S)-oxetan-2-yl]methyl}-3H-imidazo[4,5-b]pyridine-5-carboxylic acid]	
7.4	O=C(O)c1ccc2nc(CN3CCC(Oc4cc(C(F)(F)F)cc(Cc5ccc(Cl)cc5)n4)CC3)n(C[C@@H]3CCO3)c2n1 [Compound 156a, 2-{[4-({6-[(4-chlorophenyl)methyl]-4-(trifluoromethyl)pyridin-2-yl}oxy)piperidin-1-yl]methyl}-3-{[(2S)-oxetan-2-yl]methyl}-3H-imidazo[4,5-b]pyridine-5-carboxylic acid]	
7.4	O=C(O)c1ccc2nc(CN3CCC(Oc4cccc(Cc5ccc(Cl)cc5)c4F)CC3)n(C[C@@H]3CCO3)c2n1 [Compound 157a, 2-[(4-{3-[(4-chlorophenyl)methyl]-2-fluorophenoxy}piperidin-1-yl)methyl]-3-{[(2S)-oxetan-2-yl]methyl}-3H-imidazo[4,5-b]pyridine-5-carboxylic acid]	
<6.0	O=C(O)c1ccc2nc(CN3CCC(Oc4cccc(Cc5ccc(Cl)cc5)c4Cl)CC3)n(C[C@@H]3CCO3)c2n1 [Compound 158a, 2-[(4-{2-chloro-3-[(4-chlorophenyl)methyl]phenoxy}piperidin-1-yl)methyl]-3-{[(2S)-oxetan-2-yl]methyl}-3H-imidazo[4,5-b]pyridine-5-carboxylic acid]	
8.6	O=C(O)c1ccc2nc(CN3CCC(Oc4ccnc(Cc5ccc(Cl)cc5)c4)CC3)n(C[C@@H]3CCO3)c2n1 [Compound 159a, 2-{[4-({2-[(4-chlorophenyl)methyl]pyridin-4-yl}oxy)piperidin-1-yl]methyl}-3-{[(2S)-oxetan-2-yl]methyl}-3H-imidazo[4,5-b]pyridine-5-carboxylic acid]	
10.1	N#CC1(Cn2c(CN3CCC(Oc4ccnc(Cc5ccc(Cl)cc5F)n4)CC3)nc3ccc(C(=O)O)cc32)CC1 [Compound 162, 2-{[4-({2-[(4-chloro-2-fluorophenyl)methyl]pyrimidin-4-yl}oxy)piperidin-1-yl]methyl}-1-[(1-cyanocyclopropyl)methyl]-1H-1,3-benzodiazole-6-carboxylic acid]	
9.4	O=C(O)c1ccc2nc(CN3CCC(Oc4ccnc(Cc5ccc(F)cc5F)n4)CC3)n(C[C@@H]3CCO3)c2n1 [Compound 165a, 2-{[4-({2-[(2,4-difluorophenyl)methyl]pyrimidin-4-yl}oxy)piperidin-1-yl]methyl}-3-{[(2S)-oxetan-2-yl]methyl}-3H-imidazo[4,5-b]pyridine-5-carboxylic acid]	EC50 [1]: 400 pM
8.9	O=C(O)c1ccc2nc(CN3CCC(Oc4ccnc(Cc5ccc(Cl)cc5F)n4)C(F)(F)C3)n(C[C@@H]3CCO3)c2n1 (stereo partly drawn) [Compound 168a, 2-{[4-({2-[(4-chloro-2-fluorophenyl)methyl]pyrimidin-4-yl}oxy)-3,3-difluoropiperidin-1-yl]methyl}-3-{[(2S)-oxetan-2-yl]methyl}-3H-imidazo[4,5-b]pyridine-5-carboxylic acid]	
